Measurements published in US4124721A, “Pesticidal unsymmetrical bis-arylcarbamate sulfide compounds containing a 2,3, dehyrobenzofuran group” (priority 1977, dated 1978).
Converted amounts (≈) assume the structure as drawn. Where two headings read alike, the source gives them in different places.

Tests used:
Format in all cases: in vivo
[1] = tested on: Mexican bean beetle (Epilachna varivestis, Muls.); assay: Mexican Bean Beetle Leaf Spray Test; conditions: read-out: Mexican Bean Beetle LD50
Method: (§1) Suspensions of the test compounds were prepared by dissolving one gram of compound in 50 milliliters of acetone in which had been dissolved 0.1 gram (10 percent of the weight of compound) of an alkylphenoxy polyethoxyethanol surfactant, as an emulsifying or dispersing agent. The resulting solution was mixed into 150 milliliters of water to give roughly 200 milliliters of a suspension containing the compound in finely divided form. The thusprepared stock suspension contained 0.5 percent by weight of compound. The test concentrations in parts per million by weight employed in the tests described hereinbelow were obtained by appropriate dilutions of the stock suspension with water. The test procedures were as follows:
Mexican Bean Beetle Leaf Spray Test
Fourth instar larvae of the Mexican bean beetle Epilachna varivestis, Muls.), reared on Tendergreen bean plants at a temperature of 80°±5° F. and 50±5 percent relative humidity, were the test insects.
The test compounds were formulated by diluting the stock suspension with water to give a suspension containing 500 parts of test compound per million parts of final formulation. Potted Tendergreen bean plants of standard height and age were placed on a revolving turntable and sprayed with 100-110 milliliters of test compound formulation by use of a DeVilbiss spray gun set at 10 psig air pressure. This application, which lasted 25 seconds, was sufficient to wet plants to run-off. As a control, 100-110 milliliters of a water-acetone-emulsifier solution containing no test compound were also sprayed on infested plants. When dry, the paired leaves were separated and each was placed in a 9 centimeter Petri dish lined with moistened filter paper. Five randomly selected larvae were introduced into each dish, and the dishes were closed. The closed dishes were labeled and held at a temperature of 80°±5° F. for three days. Although the larvae could easily consume the leaf within 24 to 48 hours, no more food was added. Larvae which were unable to move the length of the body, even upon stimulation, were considered dead.
(§2) In these tests the pesticidal activity of the compounds against aphid, mite, Southern Armyworm, Bean Beetle and House Fly was rated as follows:
(§3) Dashes indicate no test conducted.
(§4) The results set forth in TABLE I clearly show the broad spectrum pesticidal activity of the compounds of this invention, as well as their reduced mammalian toxicity. It will be understood that the insect and mite species employed in the above tests are merely representative of a wide variety of pests that can be controlled through the use of the compounds of this invention. A series of comparative tests were conducted to evaluate the relative biological properties of the compounds of the invention and certain prior art compounds. The test procedures employed are identical to those discussed above. The results are reported in the parts per million of the compound required for a 50% kill (LD50).

[2] = tested on: house flies (Musca domestica, L.); assay: Fly Bait Test; conditions: read-out: Housefly LD50
Method: as §1
Four to six day old adult house flies (Musca domestica, L.) reared according to the specifications of the Chemical Specialties Manufacturing Association (Blue Book, McNair-Dorland Co., N.Y. 1954; pages 243-244, 261) under controlled conditions of 80°±5° F. and 50±5 percent relative humidity, were the test insects. The flies were immobilized by anesthetizing with carbon dioxide and twenty five immobilized individuals, males and females, were transferred to a cage consisting of a standard food strainer about five inches in diameter which was inverted over a wrapping-paper-covered surface. The test compounds were formulated by diluting the stock suspension with a 10 percent (by weight) sugar solution to give a suspension containing 500 parts of test compound per million parts of final formulation, by weight. Ten milliliters of the test formulation were added to a souffle cup containing a one-inch square of an absorbent cotton pad. This bait cup was introduced and centered on the blotting paper under the food strainer prior to admitting the anesthetized flies. The caged flies were allowed to feed on the bait for 24 hours, at a temperature of 80°±5° F. and the relative humidity of 50±5 percent.
as §2, §3, §4

[3] = peroral toxicity to mammals (rat LD50); conditions: rat, in vivo, po, rat
Method: (§5) Certain of these compositions were also evaluated to determine their peroral toxicity to mammals. The animal selected for this experiment was the rat. The test results obtained are expressed in terms of the number of milligrams of compositions per kilogram of weight of the animal required to achieve a mortality rate of 50 percent (LD50).
as §4

[4] = tested on: bean aphid (Aphis fabae Scop.); assay: Bean Aphid Foliage Spray Test; conditions: foliar, read-out: Aphid LD50
Method: as §1
Bean Aphid Foliage Spray Test
Adults and nymphal stages of the bean aphid (Aphis fabae Scop.) reared on potted dwarf nasturtium plants at 65°-70° F. and 50-70 percent relative humidity, constituted the test insects. For testing purposes, the number of aphids per pot was standardized to 100-150 by trimming plants containing excess aphids.
The test compounds were formulated by diluting the stock suspension with water to give a suspension containing 500 parts of test compound per million parts of final formulation.
The potted plants (one pot per compound tested) infested with 100-150 aphids, were placed on a revolving turntable and sprayed with 100-110 milliliters of test compound formulation by use of a DeVilbiss spray gun set at 40 psig. air pressure. This application, which lasted 25 seconds, was sufficient to wet the plants to run-off. As a control, 100-110 milliliters of a water-acetone-emulsifier solution containing no test compound were also sprayed on infested plants. After spraying, the pots were placed on their sides on a sheet of white standard mimeograph paper which had been previously ruled to facilitate counting. Temperature and humidity in the test room during the 24 hour holding period were 65°-70° F. and 50-70 percent, respectively. Aphids which fell onto the paper and were unable to remain standing after being uprighted were considered dead. Aphis remaining on the plants were observed closely for movement and those which were unable to move the length of the body upon stimulation by prodding were considered dead. Percent mortality was recorded for various concentration levels.
as §2, §3, §4

[5] = tested on: southern armyworm (Prodenia eridania, (Cram.)); assay: Southern Armyworm Leaf Spray Test; conditions: Spodoptera eridania, read-out: Southern Armyworm LD50
Method: as §1
Southern Armyworm Leaf Spray Test
Larvae of the southern armyworm (Prodenia eridania, (Cram.)), reared on Tendergreen bean plants at a temperature of 80°±5° F. and a relative humidity of 50±5 percent, constituted the test insects.
The test compounds were formulated by diluting the stock suspension with water to given a suspension containing 500 parts of test compound per million parts of final formulation. Potted Tendergreen bean plants of standard height and age were placed on a revolving turntable and sprayed with 100-110 milliliters of test compound formulation by use of a DeVilbiss spray gun set at 10 psig air pressure. This application, which lasted 25 seconds, was sufficient to wet plants to run-off. As a control, 100-110 milliliters of a water-acetone-emulsifier solution containing no test compound were also sprayed on infested plants. When dry, the paired leaves were separated and each one was placed in a 9 centimeter Petri dish lined with moistened filter paper. Five randomly selected larvae were introduced into each dish and the dishes were closed. The closed dishes were labeled and held at 80°-85° F. for three days. Although the larvae could easily consume the whole leaf within 24 hours, no more food was added. Larvae which were unable to move the length of the body, even upon stimulation by prodding, were considered dead. Percent mortality was recorded for various concentration levels.
as §2, §3, §4

rat = assay: peroral toxicity to mammals (rat LD50); conditions: for times less toxic to mammals than compound 1: rat LD50 relative to compound 1; for times less toxic to mammals than compound 2: rat LD50 relative to compound 2
Method: as §5, §4

[6] = concentration required for a 50% kill, comparative test
[7] = comparative test, read-out: Rat LD50 (Table II)
[8] = peroral, mortality rate of 50 percent, read-out: Rat LD50 (Table I)

SMILES	LC50 [1, 6]	LC50 [2, 6]	LD50 [3, 7]	LC50 [4, 6]	LC50 [5, 6]	LC50 [1]	LC50 [2]	LC50 [4]	LC50 [5]	times less toxic to mammals than compound 1 (rat)	times less toxic to mammals than compound 2 (rat)	LD50 [3, 8]	times less toxic to mammals as compound 2 (first of the two statements for compound 4) (rat; rat LD50, printed relative to compound 2)
CNC(=O)Oc1cccc2c1OC(C)(C)C2 [Compound 1, 2,3-dihydro-2,2-dimethyl-7-benzofuranyl methyl carbamate, reference compound]	12 µg/mL (≈ 54.2 µM)	12 µg/mL (≈ 54.2 µM)	5 mg/kg	2 µg/mL (≈ 9.04 µM)	90 µg/mL (≈ 407 µM)	–	–	–	–	–	–	–	–
CN(SN(C)C(=O)Oc1cccc2c1OC(C)(C)C2)C(=O)Oc1cccc2c1OC(C)(C)C2 [Compound 2, reference compound]	–	–	6.3 mg/kg	–	–	2 µg/mL (≈ 4.23 µM)	30 µg/mL (≈ 63.5 µM)	1 µg/mL (≈ 2.12 µM)	13 µg/mL (≈ 27.5 µM)	–	–	–	–
CC(C)c1cccc(OC(=O)N(C)SN(C)C(=O)Oc2cccc3c2OC(C)(C)C3)c1 [Compound 3, [2,2-Dimethyl-2,3-dihydro-7-benzofuranyl methylcarbamate]N-[3-isopropylphenyl methylcarbamate]sulfide]	–	–	80 mg/kg	–	–	3 µg/mL (≈ 6.75 µM)	22 µg/mL (≈ 49.5 µM)	1 µg/mL (≈ 2.25 µM)	20 µg/mL (≈ 45 µM)	at least 16 times	at least 13 times	80 mg/kg	–
CN(SN(C)C(=O)Oc1cccc2c1OC(C)(C)C2)C(=O)Oc1ccc(C(C)(C)C)cc1 [Compound 4, [2,2-Dimethyl-2,3-dihydro-7-benzofuranyl methylcarbamate]N-[4-t-butylphenylmethylcarbamate]sulfide]	–	–	45 mg/kg	–	–	18 µg/mL (≈ 39.3 µM)	17 µg/mL (≈ 37.1 µM)	2 µg/mL (≈ 4.36 µM)	23 µg/mL (≈ 50.2 µM)	–	seven	45 mg/kg	nine
CN(SN(C)C(=O)Oc1cccc2c1OC(C)(C)C2)C(=O)Oc1ccc([N+](=O)[O-])cc1 [Compound 5]	–	–	25.2 mg/kg	–	–	4 µg/mL (≈ 8.94 µM)	45 µg/mL (≈ 101 µM)	2 µg/mL (≈ 4.47 µM)	20 µg/mL (≈ 44.7 µM)	five	four	–	–
CN(SN(C)C(=O)Oc1cccc2c1OC(C)(C)C2)C(=O)Oc1ccc([N+](=O)[O-])cc1 [[2,2-Dimethyl-2,3-dihydro-7-benzofuranyl methylcarbamate]N-(4-nitrophenyl methylcarbamate]sulfide]	–	–	–	–	–	–	–	–	–	–	–	25 mg/kg	–
CSc1ccc(OC(=O)N(C)SN(C)C(=O)Oc2cccc3c2OC(C)(C)C3)cc1C [[2,2-Dimethyl-2,3-dihydro-7-benzofuranylmethylcarbamate]N-[3-methyl-4-methylthiophenyl methylcarbamate]sulfide]	–	–	–	–	–	–	–	–	–	–	–	18 mg/kg	–
